# Experiments:
# [1] = test system: NMDA-induced glaucoma rat model; assay: Protective effect against NMDA-induced nerve damage, administration by instillation to the eye; type: in vivo, Sprague-Dawley (SD) rats; settings: Test 2, FIG. 1: 1% memantine solution in PBS instilled twice a day for five days; 5 μL of 4 mM NMDA intravitreously; vs base (PBS)
# From the text: (§1) In recent years the glutamate analogue NMDA (N-methyl-D-aspartate) has been widely reported to be one of causative agents of neurodegenerative diseases including Alzheimer's disease. In the ophthalmic field, NMDA is considered to be involved in optic nerve damage in glaucoma (Brain Research Bulletin, 81 (2010) 349-358). Accordingly, in this experiment rat models with glaucoma induced by NMDA were used to evaluate the neuroprotective effect of GGA.
# To Sprague-Dawley (SD) rats (n=8), an eye drop containing 1% (w/v) GGA (all-trans form) or a control eye drop not containing GGA was pre-administered by instillation to the eye twice a day for five days. On the fifth day after the start of the instillation, 5 μL of 4 mM NMDA was intravitreously administered to induce nerve damage (Test 1). […]
# (§2) Three days after the administration of NMDA, the eyeballs were harvested, fixed in half Karnovsky's fixative solution for 24 hours, embedded in paraffin, thin sectioned and stained with hematoxylin-eosin (HE) to prepare histopathological sections. The histological sections were observed under an optical microscope and the thickness (μm) of the inner plexiform layer (IPL) of the retina was measured. Based on the thickness of the inner plexiform layer (IPL) of the retina, the neuroprotective effect of the tested eye drops was evaluated.
# [2] = test system: mouse with retinal injury induced by ischemia; settings: oral administration; cited from earlier work
# [3] = Decomposition of teprenone eye drop by direct sunlight in containers; type: physicochemical; settings: direct sunlight 24 hours; Container C (polyethylene terephthalate); vs aluminum foil covered control
# Description: An eye drop containing teprenone was prepared. Specifically, the eye drop was prepared as follows. To surfactants (polysorbate 80 and POE castor oil) warmed to 65° C., teprenone was added and dissolved under stirring in hot water bath at 65° C. for 2 minutes. Water at 65° C. was added, a buffer solution was added, and the mixture was mixed under stirring to give a homogeneous solution. The pH and osmotic pressure were adjusted with hydrochloric acid or sodium hydroxide. The resulting solution was filtered through a membrane filter with a pore size of 0.2 μm (bottle top filter, Thermo Fisher Scientific) to give a clear sterile eye drop.
# The eye drop was separately poured, using a glass volumetric pipette, into 10- to 15-mL plastic or glass containers each in an amount of 5 mL (5 g) and the containers were sealed. These eye drops were placed in the upright position on a test-tube stand and left to stand under direct sunlight for 24 hours (test samples). […]
# The amount of teprenone contained in the test or control eye drops was measured by HPLC and the amount of decomposition (mg/100 mL) by light irradiation was calculated. The amount of decomposition by light irradiation was calculated as follows: […]
# [4] = test system: human corneal epithelial cells (HCET); assay: Cell permeability (Transwell), HCET; type: in vitro ADME; settings: HCET on Transwell; 0.1% GGA (all-trans:5Z-mono-cis 6:4); 30 minutes or 4 hours; compared with MDCK-I; FIG. 3
# Description: (§3) The following test was performed using three types of cells, human corneal epithelial cells (HCET), human nasal septum squamous carcinoma cells (RPMI-2650), and canine renal tubular epithelial cells (MDCK-I), which are often used as an intestinal permeability assay model. The medium used for culture of each type of cells is shown below.
# HCET: a liquid medium containing an equal ratio of Dulbecco's modified Eagle's basal medium/Ham's F12 (DMEM/F-12, Invitrogen) supplemented with 0.5% DMSO (Wako Pure Chemical Industries, Ltd.), 10 ng/mL epidermal growth factor (R&D), 5 μg/mL insulin (Invitrogen) and 5% (v/v) fetal calf serum (Daiichi Pure Chemicals)
# GGA having a weight ratio of the all-trans form to the 5Z-mono-cis form of 6:4 (Wako Pure Chemical Industries, Ltd.) was used as a test substance. Amounts of 100 mg of GGA and 0.25 mg of α-tocopherol (Wako Pure Chemical Industries, Ltd.) as an antioxidant were weighed and dissolved in 789 mg of 100% ethanol. […]
# (§4) Each type of cells was seeded onto a Transwell 24-well microplate (CORNING) at 5.0×10, cells per well and cultured under 5% CO2 at 37° C. […] After the culture period, the culture supernatant in the Transwells was recovered and the residual GGA in the supernatant was measured. […]
# (§5) The concentration of GGA was measured as follows. […]
# [5] = test system: retinal detachment-induced animal; settings: intraperitoneal administration; cited from earlier work
# [6] = test system: human nasal septum squamous carcinoma cells (RPMI-2650); assay: Cell permeability (Transwell), RPMI-2650; type: in vitro ADME; settings: RPMI-2650 on Transwell; 0.1% GGA (all-trans:5Z-mono-cis 6:4); 30 minutes or 4 hours; compared with MDCK-I; FIG. 3
# Description: as §3
# RPMI-2650: a minimum essential medium (MEM, Invitrogen) supplemented with 10% (v/v) fetal calf serum (Daiichi Pure Chemicals)
# GGA having a weight ratio of the all-trans form to the 5Z-mono-cis form of 6:4 (Wako Pure Chemical Industries, Ltd.) was used as a test substance. Amounts of 100 mg of GGA and 0.25 mg of α-tocopherol (Wako Pure Chemical Industries, Ltd.) as an antioxidant were weighed and dissolved in 789 mg of 100% ethanol. The GGA dissolved in ethanol was diluted and dissolved in serum-free medium appropriate for each type of cells to a final concentration of 0.1 w/v %.
# as §4, with “C. To each of the Transwells' lower chambers, 600 μL of the same medium as used for cell culture was added.” for “C.”
# as §5
# [7] = test system: multiple sclerosis mouse model; settings: oral administration; cited from earlier work
# [8] = test system: mouse with photoreceptor cell damage caused by light irradiation; settings: oral administration; cited from earlier work
# [9] = test system: NMDA-induced glaucoma rat model; assay: Protective effect against NMDA-induced nerve damage, instillation into the nose and administration to the oral cavity; type: in vivo, Sprague-Dawley (SD) rats; settings: vs no GGA
# Description: as §1
# To Sprague-Dawley (SD) rats (n=6), 20 μL of 100% (w/v) GGA (all-trans form) was intranasally administered once a day for five days and after each administration the rats were maintained under anesthesia for 30 minutes. On the third day after the start of the administration of GGA, 5 μL of 4 mM NMDA was intravitreously administered to induce nerve damage. […]
# as §2, with “in” for “in half”
# glaucoma rat model = settings: intraperitoneal administration; cited from earlier work
Molecule,neuroprotective effect based on thickness of the inner plexiform layer (IPL) of the retina [1],number of surviving retinal neurons [2],Amount of decomposition [3],permeability of GGA through cells [4],apoptosis of photoreceptor cells [5],expression of heat shock protein 70 [5],permeability of GGA through cells [6],cell loss in the ganglion [7],number of degenerating axons in the optic nerve [7],visual function [7],thioredoxin and heat shock protein 72 in the retinal pigment epithelium [8],neuroprotective effect based on thickness of the inner plexiform layer (IPL) of the retina ([9]; FIG. 2: 20 μL of 100% (w/v) GGA (all-trans form) intranasally once a day for five days),neuroprotective effect based on thickness of the inner plexiform layer (IPL) of the retina ([9]; FIG. 2: 100 μL of 100% (w/v) GGA (all-trans form) to the oral cavity once a day for five days),expression of heat shock protein 72 (glaucoma rat model),optic nerve damage (glaucoma rat model),retinal ganglion cell death (glaucoma rat model)
CC12CC3CC(C)(C1)CC(N)(C3)C2 [memantine],no neuroprotective effect,–,–,–,–,–,–,–,–,–,–,–,–,–,–,–
geranylgeranylacetone [GGA],–,significantly increased the number of surviving retinal neurons,significantly inhibited the decomposition of GGA,higher than that through MDCK-I,reduced the apoptosis of photoreceptor cells significantly,induced the expression of heat shock protein 70,higher than that through MDCK-I,prevented cell loss in the ganglion,reduced the number of degenerating axons in the optic nerve,improved the visual function,induced thioredoxin and heat shock protein 72 in the retinal pigment epithelium,apparent neuroprotective effect,apparent neuroprotective effect,induced the expression of heat shock protein 72,ameliorated optic nerve damage,reduced retinal ganglion cell death

# From patent publication US20140243419A1, “MUCOSALLY-APPLIED AGENT FOR PREVENTION, AMELIORATION OR TREATMENT OF RETINAL DISEASE” (ROHTO PHARMACEUTICAL CO., LTD., priority 2013, published 2014)
